According to PubChem BioAssay AID1963849 (Molecular Pharmacology Branch, DTP, NCI, 2024):

System: 299254-011-R-J1-PDC complex spheroid viability
Assay: Anticancer human tumor 299254-011-R-J1-PDC patient-derived melanoma cell line growth inhibition [POLQ]
Settings: for IC50: curve of first compound; for viability, T/C: stronger effect = lower value
Method: Multicellular complex tumor spheroid response to Polymerase (POL) inhibitors (novobiocin, ART-558, RP6685) in combination with a variety of drugs and investigational agents in selected tumor cell lines
The POL inhibitors (novobiocin, ART-558, and RP6685) were evaluated both individually and in combination with standard of care and investigational anticancer small molecules within a complex spheroid model of solid tumors. . Complex spheroids include a stromal component modeled by human endothelial cells (HUVEC) and fibroblasts modeled by human mesenchymal stem cells (MSCs). The concentration ranges selected for each drug and investigational agent were based upon clinically achievable concentrations if the clinical Cmax of the agent was known.
Compounds. The drugs and investigational agents: novobiocin (NSC847541), ART-558 (NSC835418), RP-6685 (NSC848927), peposertib (NSC802822), ceralasertib (NSC780249), elimusertib (NSC800525), camonsertib (NSC841442), AZD-1390 (NSC803789), olaparib (NSC753686), talazoparib (NSC767125), rucaparib (NSC756644), sotorasib (NSC818433), MRTX-1133 (NSC836407), SN-38 (NSC673596), topotecan (NSC609699), epotoside (NSC141540), doxorubicin (NSC123127), gemcitabine (NSC613327), 5-fluorouracil (NSC19893), paclitaxel (NSC125973), vemurafenib (NSC761431), MSA-2 (NSC828583), SN-011 (NSC837082), adavosertib (NSC754352), prexasertib (NSC758257), carboplatin (NSC241240) and oxaliplatin (NSC266046), were obtained from the National Cancer Institute (NCI) Developmental Therapeutics Program Chemical Repository (21). The FDA-approved anticancer drug set is available from the Developmental Therapeutics Program at https://dtp.cancer.gov/organization/dscb/obtaining/. […] The stock solutions were prepared in dimethyl sulfoxide (DMSO, Sigma-Aldrich, St. Louis, MO, cat. D2650), except for the platinum compounds which were prepared in saline (Quality Biological, Gaithersburg, MD, cat. 114-055-101), at 800-fold the tested concentration and stored at -70 degrees C prior to their use. All drugs and investigational agents were tested over a range starting from a high concentration at or near the clinical Cmax and decreasing in half-log increments. If the clinical Cmax for an agent had not been determined, the highest concentration tested was 10 microM, except for SN-38, which was tested at a high concentration of 1 microM.
Cell Culture. All cells were maintained in an incubator at 37 degrees C and 5% CO2 with 95% humidity. The PDC lines were cultured according to standard operating procedures established by the NCI PDMR (https://pdmr.cancer.gov). Table 3 of the manuscript, lists the cell lines along with the number of the three cell types plated to form the mct-spheroids and media for tumor cell growth. After thawing, all PDC lines, except 997537-175-T-J1-PDC and 415267-285-R-J2-PDC, were cultured in Matrigel-coated flasks prepared with a working solution of 1X Ham's F-12 nutrient mix, without supplementation (Thermo Fisher Scientific, cat. 11765054), 100 U/mL penicillin-streptomycin (Thermo Fisher Scientific, cat. 15140122), and 2.5% Matrigel (Corning Inc., Corning, NY, cat. 354248) for the first three passages. The two PDC lines 997537-175-T-J1-PDC and 415267-285-R-J2-PDC were cultured on uncoated flasks. The 857933-349-R-J2-PDC line was cultured in 6C/Colon 1B media containing advanced DMEM/F-12 (Thermo Fisher Scientific, cat. 12634028), 10 mM HEPES (Thermo Fisher Scientific, cat. 15630080), 1X GlutaMAX supplement (Thermo Fisher Scientific, cat. 35050061), 0.1 mg/mL primocin (InvivoGen, San Diego, CA, cat. ant-pm-2), 10% defined fetal bovine serum, heat inactivated (HyClone Laboratories Inc., Logan, UT, cat. SH30070.03HI), 50% L-WRN conditioned media (ATCC, cat. CRL-3276), 1.25 mM N-Acetyl-L-cysteine (Sigma-Aldrich, cat. A9165), 10 mM nicotinamide (Sigma-Aldrich, cat. N0636), 1X B-27 supplement (Thermo Fisher Scientific, cat. 17504044), 1X N-2 supplement (Thermo Fisher Scientific, cat. […]

[1] = second compound 0.0316 µM, first compound 0.00316 µM
[2] = second compound 0.0316 µM, first compound 0.01 µM
[3] = second compound 0.0316 µM, first compound 0.0316 µM
[4] = second compound 0.0316 µM, first compound 0.1 µM
[5] = second compound 0.1 µM, first compound 0.00316 µM
[6] = second compound 0.1 µM, first compound 0.01 µM
[7] = second compound 0.1 µM, first compound 0.0316 µM
[8] = second compound 0.1 µM, first compound 0.1 µM
[9] = second compound 0.316 µM, first compound 0.00316 µM
[10] = second compound 0.316 µM, first compound 0.01 µM
[11] = second compound 0.316 µM, first compound 0.0316 µM
[12] = second compound 0.316 µM, first compound 0.1 µM
[13] = second compound 1 µM, first compound 0.00316 µM
[14] = second compound 1 µM, first compound 0.01 µM
[15] = second compound 1 µM, first compound 0.0316 µM
[16] = second compound 1 µM, first compound 0.1 µM
[17] = second compound 3.16 µM, first compound 0.00316 µM
[18] = second compound 3.16 µM, first compound 0.01 µM
[19] = second compound 3.16 µM, first compound 0.0316 µM
[20] = second compound 3.16 µM, first compound 0.1 µM
[21] = second compound 10 µM, first compound 0.00316 µM
[22] = second compound 10 µM, first compound 0.01 µM
[23] = second compound 10 µM, first compound 0.0316 µM
[24] = second compound 10 µM, first compound 0.1 µM
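Further: spheroids exposed to drugs for one week before measurement.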
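Wherever viability, T/C is given: percent viability relative to DMSO vehicle control taken as 100%.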

Work on `CC[C@@]1(O)C(=O)OCc2c1cc1n(c2=O)Cc2cc3c(CN(C)C)c(O)ccc3nc2-1` + COC1C(OC(N)=O)C(O)C(Oc2ccc3c(O)c(NC(=O)c4ccc(O)c(CC=C(C)C)c4)c(=O)oc3c2C)OC1(C)C yielded an IC50 (second compound 0.0316 µM) of over 100 nM, an IC50 (second compound 0.1 µM) of over 100 nM and an IC50 (second compound 0.316 µM) of over 100 nM. It also gave an IC50 (second compound 1 µM) of over 100 nM, an IC50 (second compound 3.16 µM) of over 100 nM and an IC50 (second compound 10 µM) of over 100 nM. It also gave a viability, T/C (second compound 0.0316 µM, first compound 0.000316 µM) of 104%, a viability, T/C (second compound 0.0316 µM, first compound 0.001 µM) of 95.4% and a viability, T/C [1] of 123%. The viability, T/C [2] was 101%, the viability, T/C [3] was 112% and the viability, T/C [4] was 76%. It also gave a viability, T/C (second compound 0.1 µM, first compound 0.000316 µM) of 111%, a viability, T/C (second compound 0.1 µM, first compound 0.001 µM) of 105% and a viability, T/C [5] of 107%. For the same compound, the viability, T/C [6] was 110%, the viability, T/C [7] was 114% and the viability, T/C [8] was 83.5%. For the same compound, the viability, T/C (second compound 0.316 µM, first compound 0.000316 µM) was 102%, the viability, T/C (second compound 0.316 µM, first compound 0.001 µM) was 120% and the viability, T/C [9] was 103%. For the same compound, the viability, T/C [10] was 102%, the viability, T/C [11] was 120% and the viability, T/C [12] was 74.5%. For the same compound, the viability, T/C (second compound 1 µM, first compound 0.000316 µM) was 104%, the viability, T/C (second compound 1 µM, first compound 0.001 µM) was 106% and the viability, T/C [13] was 111%. For the same compound, the viability, T/C [14] was 110%, the viability, T/C [15] was 110% and the viability, T/C [16] was 67.6%. For the same compound, the viability, T/C (second compound 3.16 µM, first compound 0.000316 µM) was 115%, the viability, T/C (second compound 3.16 µM, first compound 0.001 µM) was 104% and the viability, T/C [17] was 93.6%. The viability, T/C [18] was 105%, the viability, T/C [19] was 105% and the viability, T/C [20] was 84.6%. It also gave a viability, T/C (second compound 10 µM, first compound 0.000316 µM) of 112%, a viability, T/C (second compound 10 µM, first compound 0.001 µM) of 111% and a viability, T/C [21] of 112%. The viability, T/C [22] was 102%, the viability, T/C [23] was 110% and the viability, T/C [24] was 87.1%.

`CCc1c2c(nc3ccc(O)cc13)-c1cc3c(c(=O)n1C2)COC(=O)[C@]3(O)CC` + COC1C(OC(N)=O)C(O)C(Oc2ccc3c(O)c(NC(=O)c4ccc(O)c(CC=C(C)C)c4)c(=O)oc3c2C)OC1(C)C showed an IC50 (second compound 0.0316 µM) of over 1000 nM, an IC50 (second compound 0.1 µM) of over 1000 nM and an IC50 (second compound 0.316 µM) of over 1000 nM. The IC50 (second compound 1 µM) was over 1000 nM, the IC50 (second compound 3.16 µM) was over 1000 nM and the IC50 (second compound 10 µM) was over 1000 nM. For the same compound, the viability, T/C [1] was 109%, the viability, T/C [2] was 77.5% and the viability, T/C [3] was 69.4%. The viability, T/C [4] was 65.4%, the viability, T/C (second compound 0.0316 µM, first compound 0.316 µM) was 70.4% and the viability, T/C (second compound 0.0316 µM, first compound 1 µM) was 48.9%. The viability, T/C [5] was 114%, the viability, T/C [6] was 91.8% and the viability, T/C [7] was 64.3%. It also gave a viability, T/C [8] of 64.5%, a viability, T/C (second compound 0.1 µM, first compound 0.316 µM) of 66.3% and a viability, T/C (second compound 0.1 µM, first compound 1 µM) of 57.8%. It also gave a viability, T/C [9] of 91.8%, a viability, T/C [10] of 87.1% and a viability, T/C [11] of 77.2%. It also gave a viability, T/C [12] of 64.8%, a viability, T/C (second compound 0.316 µM, first compound 0.316 µM) of 61.5% and a viability, T/C (second compound 0.316 µM, first compound 1 µM) of 56.2%. The viability, T/C [13] was 112%, the viability, T/C [14] was 92.1% and the viability, T/C [15] was 77.9%. The viability, T/C [16] was 62.5%, the viability, T/C (second compound 1 µM, first compound 0.316 µM) was 64% and the viability, T/C (second compound 1 µM, first compound 1 µM) was 59.4%. It also gave a viability, T/C [17] of 93.9%, a viability, T/C [18] of 77.5% and a viability, T/C [19] of 68.8%. The viability, T/C [20] was 69.4%, the viability, T/C (second compound 3.16 µM, first compound 0.316 µM) was 63% and the viability, T/C (second compound 3.16 µM, first compound 1 µM) was 56.6%. The viability, T/C [21] was 99.2%, the viability, T/C [22] was 89.3% and the viability, T/C [23] was 71.7%. The viability, T/C [24] was 60.9%, the viability, T/C (second compound 10 µM, first compound 0.316 µM) was 63.6% and the viability, T/C (second compound 10 µM, first compound 1 µM) was 48.8%.
